From patent US20130115628A1, “METHOD FOR SELECTION OF CHEMOTHERAPEUTIC AGENTS FOR ADENOCARCINOMA CANCER” (VENTANA MEDICAL SYSTEMS, INC., priority 2011, published 2013)

How the values were obtained:
[1] = system: pancreatic adenocarcinoma; assay: Retrospective study of tumor hENT1 expression (IHC, SP120) and overall survival in RTOG 9704 patients given adjuvant gemcitabine or 5FU; assay type: in vivo, human; parameters: Median OS in Gem hENT1-Low Patients / Median OS in Gem hENT1-High Patients: unit not given here; settings: for median OS as hENT1 expression increases from No to Low to High: Method Five (percent negative staining), FIG. 18; for median OS as hENT1 expression increases from Negative to Weak to Moderate to Strong: Method Four (staining intensity), FIG. 30; for median OS as hENT1 expression (H-score subgroup) increases: Method One (H-score), FIG. 22; for OS across High, Mid and No hENT1 subgroups: Method Six with No hENT1 category (membranes resolvable at 10×), FIGS. 33-34; for OS of Low hENT1 subgroup compared to High hENT1 subgroup: Method Six; for median OS as hENT1 expression increases from Negative to Segmental to Diffuse: Method Three (staining pattern), FIG. 26; for OS of subgroup N, 20× or 40× compared to subgroup PP at 2×, 4× or 10×: Method Two (magnification), FIGS. 15-16; for HR (CI) for hENT1-Low vs -High in Gem Patients / HR for Gem vs 5-FU in hENT1-High Patients / HR for Gem vs 5-FU in hENT1-Low Patients: overall survival
Text: Method One for determining a hENT1 endpoint is an H-score. The H-score is a continuous variable that takes into account both the percentage of cells that are positive for the antigen in question, as well as the intensity of staining with the relevant antibody (McCarty et al. (1986) Cancer Research (Supp) 46, 4244s-4248s). A scoring algorithm was used to capture the hENT1 expression results. […]
Method Four for determining a hENT1 endpoint is based on highest percentage of hENT1 membrane staining intensity. The staining intensity for a tissue core is determined using the parameters described for the H-score (0, 1+, 2+, 3+). The percentage of each parameter represented by the tumor is determined. If a score of only 0 is obtained, the endpoint is considered Negative (N). For all other samples (e.g. those that contain scores with 0, 1+, 2+, and/or 3+), the endpoint is determined by the non-0 membrane intensity represented in the highest percentage (see FIG. 1). For example, if the sample is 50% 0, 20% 1+, 30% 2+ and 0% 3+, such sample would be referred to as 2+. If 2 intensities have the same percentage then the lower of the 2 intensities is used. A staining intensity score of 0 is referred to as Negative (N), a staining intensity score of 1+ is referred to as Weak (W), a staining intensity score of 2+ is referred to as Moderate (M), and a staining intensity score of 3+ is referred to as Strong (S). If there are multiple evaluations made on a patient, the maximum result (i.e., S>M>W) from the evaluations is used. There may be circumstances where if multiple evaluations are made on a patient, the minimum result from the evaluations is used. […]

pancreatic cancer = settings: Stage III/IV disease, gemcitabine monotherapy; cited from earlier work
[2] = 50% tumor staining, Low group: >50% of tumor is negative
[3] = Magnification (intensity), Low group: unequivocal membranes visible only at 20x, 40x or negative
[4] = Magnification and % tumor staining, Low group: membranes visible only at 20x, 40x or negative OR >=50% of tumor is negative
[5] = High = PP at 2×, 4× and/or 10× AND negative tumor tissue <=50%, FIGS. 7-8
[6] = High = at least 50% of tumor displays membrane staining at 10× ocular, FIGS. 4-5
[7] = staining variable H-score, Low group: H-score <50

For Nc1ccn([C@@H]2O[C@H](CO)[C@@H](O)C2(F)F)c(=O)n1 [gemcitabine], the “Median OS in Gem hENT1-High Patients” value [1, 2] was 19.6, the “Median OS in Gem hENT1-Low Patients” value [1, 2] was 14.2 and the “Median OS in Gem hENT1-High Patients” value [1, 3] was 21.0. The “Median OS in Gem hENT1-Low Patients” value [1, 3] was 14.8, the “Median OS in Gem hENT1-High Patients” value [1, 4] was 24.2 and the “Median OS in Gem hENT1-Low Patients” value [1, 4] was 14.8. The “median OS as hENT1 expression increases from No to Low to High” value [1] was “increases”, the “OS of No hENT1 subgroup compared to Low and High hENT1 subgroups” value ([1]; Method Five, FIG. 19) was “exhibited shorter OS” and the “OS of patients with observable hENT1 expression (Low and High combined) compared to no hENT1 expression” value ([1]; Method Five, FIG. 20) was “exhibit longer OS”. For the same compound, the “median OS as hENT1 expression increases from Negative to Weak to Moderate to Strong” value [1] was “increases”, the “OS of negative hENT1 subgroup compared to Weak, Moderate or Strong subgroups” value ([1]; Method Four, FIG. 31) was “exhibited shorter OS” and the “median OS as hENT1 expression (H-score subgroup) increases” value [1] was “increases”. For the same compound, the “OS of subgroup H-score<=20 compared to H-score between 20 and 80 and H-score>=80” value ([1]; Method One, FIG. 23) was “exhibited shorter OS”, the “OS of patients with H-score>=50 compared to H-score <50” value ([1]; Method One, FIG. 24) was “exhibited longer OS” and the “OS across High, Mid and No hENT1 subgroups” value [1] was “the subgroup with No hENT1 expression exhibited the shortest OS followed by the Mid hENT1 subgroup and the High hENT1 subgroup had the longest OS”. The “OS of Low hENT1 subgroup compared to High hENT1 subgroup” value (“OS … compared to High hENT1 subgroup” below) [1, 5] was “exhibited shorter OS”, the “OS … compared to High hENT1 subgroup” value [1, 6] was “exhibited shorter OS” and the “median OS as hENT1 expression increases from Negative to Segmental to Diffuse” value [1] was “increases”. The “OS of negative hENT1 subgroup compared to Segmental or Diffuse subgroups” value ([1]; Method Three, FIG. 27) was “exhibited shorter OS”, the “OS of patients with detectable hENT1 expression (S or D) compared to no hENT1 expression” value ([1]; Method Three, FIG. 28) was “exhibit longer OS” and the “OS of subgroup N, 20× or 40× compared to subgroup PP at 2×, 4× or 10×” value [1] was “exhibited shorter OS”. For the same compound, the “median overall survival of hENT1-high patients compared to hENT1-low patients” value ([1]; for each of the hENT1 cut-offs of Table 2) was “longer”, the “HR (CI) for hENT1-Low vs -High in Gem Patients” value (shortened to “HR (CI) for hENT1-Low vs -High”) [1, 2] was 0.61 and the “HR for Gem vs 5-FU in hENT1-High Patients” value [1, 2] was 0.84. For the same compound, the “HR for Gem vs 5-FU in hENT1-Low Patients” value [1, 2] was 1.37, the “HR (CI) for hENT1-Low vs -High” value [1, 3] was 0.67 and the “HR for Gem vs 5-FU in hENT1-High Patients” value [1, 3] was 0.87. For the same compound, the “HR (CI) for hENT1-Low vs -High” value [1, 4] was 0.58, the “HR for Gem vs 5-FU in hENT1-High Patients” value [1, 4] was 0.77 and the “HR (CI) for hENT1-Low vs -High” value [1, 7] was 0.63. For the same compound, the “HR for Gem vs 5-FU in hENT1-High Patients” value [1, 7] was 0.86, the “HR for Gem vs 5-FU in hENT1-Low Patients” value [1, 7] was 1.35 and the “Median OS in Gem hENT1-High Patients” value [1, 7] was 19.6. For the same compound, the “Median OS in Gem hENT1-Low Patients” value [1, 7] was 14.2 and the “median OS” value (pancreatic cancer) was 5-7 months.

With O=c1[nH]cc(F)c(=O)[nH]1 [5FU, 5-Fluorouracil] the “median OS as hENT1 expression increases from No to Low to High” value [1] was “do not demonstrate an improvement in OS with increasing hENT1 expression”, the “median OS as hENT1 expression increases from Negative to Weak to Moderate to Strong” value [1] was “do not demonstrate an improvement in OS with increasing hENT1 expression” and the “median OS as hENT1 expression (H-score subgroup) increases” value [1] was “do not demonstrate an improvement in OS with increasing hENT1 expression”. The “OS across High, Mid and No hENT1 subgroups” value [1] was “do not demonstrate improvement in OS between the High, Mid and No hENT1 subgroups”, the “OS … compared to High hENT1 subgroup” value [1, 5] was “do not demonstrate improvement in OS between the High and Low subgroups” and the “OS … compared to High hENT1 subgroup” value [1, 6] was “do not demonstrate improvement in OS between the High and Low subgroups”. The “median OS as hENT1 expression increases from Negative to Segmental to Diffuse” value [1] was “do not demonstrate an improvement in OS with increasing hENT1 expression” and the “OS of subgroup N, 20× or 40× compared to subgroup PP at 2×, 4× or 10×” value [1] was “do not demonstrate an improvement in OS”.
